Key:
[1] = test system: PC3 (prostate) cancer cells; experiment: In vitro cytotoxic activity MTT assay, PC3; type: cell-based; conditions: Homo sapiens, PC-3, exposed for 96 hours, 50% inhibition of cell proliferation, read-out: Cytotoxicity IC50, PC3 (prostate)
Description: (§1) Compounds 1-12 were screened for their in vitro cytotoxic activity utilizing a 3-(4,5-dimethyl-thiazol-2-yl)-2,5-diphenyltetrazolium bromide (MTT) assay against selected cancer human cell lines consisting of PC3 (prostate), HCT116 (colon), A375 (melanoma), H1299 (lung), MIAPaCa-2 (pancreas), HL60 (leukemia), MCF7 (breast), MDA-MB-231 (breast) (T. Mosmann, J. Immunol. Meth., 1983, 65, 55-63). The cells were cultured at 37° C. in RMPI1640 medium supplemented with 10% fetal bovine serum, 50 IU/mL penicillin, and 50 μg/mL streptomycin in a 5% CO2 incubator. All cells were sub-cultured 3 times/week by trypsinisation. Viable cells were seeded and allowed to adhere for 12 h before a test drug was added in 96-well plates at an initial density of 1.0×10^5 cells/mL. Tumour cell lines were separately exposed to various concentrations of the tested compounds followed by incubation at a temperature of 37° C. during 96 h inside a medium of fresh RMPI 1640. Cells were subsequently incubated at 37° C. using MTT at 0.5 mg/mL during 4 h. After removal of supernatant, formazan crystals were dissolved in isopropanol and the optical density was measured at 570 nm. CX-4945 was used as a positive control.

[2] = test system: HL60 (leukemia) cancer cells; experiment: In vitro cytotoxic activity MTT assay, HL60; type: cell-based; conditions: Homo sapiens, HL-60, exposed for 96 hours, 50% inhibition of cell proliferation, read-out: Cytotoxicity IC50, HL60 (leukemia)
Description: as §1

[3] = test system: H1299 (lung) cancer cells; experiment: In vitro cytotoxic activity MTT assay, H1299; type: cell-based; conditions: Homo sapiens, NCI-H1299, exposed for 96 hours, 50% inhibition of cell proliferation, read-out: Cytotoxicity IC50, H1299 (lung)
Description: as §1

[4] = molecular target: T1, recombinant human CK2 (RRββ-holoenzyme) (Homo sapiens, UniProt P68400); experiment: CK2 Kinase Assay (33P-ATP, filter plate); type: biochemical; conditions: final ATP concentration 15 μM, 10 min at 30° C, eight concentrations; read-out: protein kinase CK2 IC50
T1 construct: purchased Millipore
Description: CK2 Kinase Assay was conducted using the protocol as described in Pierre F. et al; J. Med. Chem. 2011, 54, 635-654. The tested compounds in aqueous solution were added at a volume of 10 μL to a reaction mixture comprising 10 μL of assay dilution buffer (ADB; 20 mM MOPS, pH 7.2, 25 mM β-glycerol phosphate, 5 mM EGTA, 1 mM sodium orthovanadate, and 1 mM dithiothreitol), 10 μL of substrate peptide (RRRDDDSDDD, dissolved in ADB at a concentration of 1 mM), 10 μL of recombinant human CK2 (RRββ-holoenzyme, 25 ng dissolved in ADB; Millipore). Reactions were initiated by the addition of 10 μL of ATP solution (90% 75 mM MgCl2, 75 μM ATP (final ATP concentration: 15 μM) dissolved in ADB; 10% [γ-33P] ATP (stock 1 mCi/100 μL; 3000 Ci/mmol (Perkin-Elmer) and maintained for 10 min at 30° C. The reactions were quenched with 100 μL of 0.75% phosphoric acid and then transferred to and filtered through a phosphor cellulose filter plate (Millipore). After washing each well five times with 0.75% phosphoric acid, the plate was dried under vacuum for 5 min and, following the addition of 15 μL of scintillation fluid to each well, the residual radioactivity was measured using a Wallac […] counter. The IC50 values were derived from eight concentrations of test inhibitors.

[5] = test system: MDA-MB-231 (breast) cancer cells; experiment: In vitro cytotoxic activity MTT assay, MDA-MB-231; type: cell-based; conditions: Homo sapiens; MDA-MB-231 cells, exposed for 96 hours, 50% inhibition of cell proliferation; read-out: Cytotoxicity IC50, MDA-MB-231 (breast)
Description: as §1

[6] = test system: MCF7 (breast) cancer cells; experiment: In vitro cytotoxic activity MTT assay, MCF7; type: cell-based; conditions: Homo sapiens, exposed for 96 hours, 50% inhibition of cell proliferation, read-out: Cytotoxicity IC50, MCF7 (breast)
Description: as §1

[7] = test system: MIAPaCa-2 (pancreas) cancer cells; experiment: In vitro cytotoxic activity MTT assay, MIAPaCa-2; type: cell-based; conditions: Homo sapiens, MIA PaCa-2; MIAPaCa-2 cells, exposed for 96 hours, 50% inhibition of cell proliferation; read-out: Cytotoxicity IC50, MIAPaCa-2 (pancreas)
Description: as §1

[8] = test system: HCT116 (colon) cancer cells; experiment: In vitro cytotoxic activity MTT assay, HCT116; type: cell-based; conditions: Homo sapiens, HCT-116, exposed for 96 hours, 50% inhibition of cell proliferation, read-out: Cytotoxicity IC50, HCT116 (colon)
Description: as §1

[9] = test system: A375 (melanoma) cancer cells; experiment: In vitro cytotoxic activity MTT assay, A375; type: cell-based; conditions: Homo sapiens, A-375, exposed for 96 hours, 50% inhibition of cell proliferation, read-out: Cytotoxicity IC50, A375 (melanoma)
Description: as §1

T1 sequence (P68400 whole entry): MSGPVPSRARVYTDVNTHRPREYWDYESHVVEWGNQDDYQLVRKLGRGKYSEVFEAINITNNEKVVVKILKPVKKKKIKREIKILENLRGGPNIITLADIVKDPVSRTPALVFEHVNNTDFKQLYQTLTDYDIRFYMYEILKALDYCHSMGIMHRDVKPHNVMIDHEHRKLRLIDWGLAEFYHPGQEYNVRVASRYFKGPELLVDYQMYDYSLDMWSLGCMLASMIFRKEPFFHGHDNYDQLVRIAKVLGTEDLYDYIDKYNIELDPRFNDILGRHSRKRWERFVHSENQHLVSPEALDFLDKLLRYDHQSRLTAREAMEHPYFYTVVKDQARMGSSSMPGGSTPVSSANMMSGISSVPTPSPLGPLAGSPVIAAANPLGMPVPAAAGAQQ
T1 sequence (P67870 whole entry partner): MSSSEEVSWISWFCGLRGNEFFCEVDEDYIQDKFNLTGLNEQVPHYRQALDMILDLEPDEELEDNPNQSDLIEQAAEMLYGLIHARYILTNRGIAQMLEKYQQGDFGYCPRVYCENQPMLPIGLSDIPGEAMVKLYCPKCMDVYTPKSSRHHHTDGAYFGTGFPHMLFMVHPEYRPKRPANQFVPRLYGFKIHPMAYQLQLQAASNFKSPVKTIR

Question: What does the source list for Clc1cccc(Nc2nc3cnccc3c3nc4cnccn4c23)c1 [Compound 1, N-(3-chlorophenyl)pyrazino[2′,1′:2,3]imidazo[4,5-c][1,7]naphthyridin-6-amine]?
Answer: IC50 [1]: 1100 nM; IC50 [2]: 3300 nM; IC50 [3]: 1900 nM; IC50 [4]: 18 nM; IC50 [5]: 4800 nM; IC50 [6]: 5600 nM; IC50 [7]: 1200 nM; IC50 [8]: 1400 nM; IC50 [9]: 3100 nM

Source: patent US11958853B1, “6-substituted aminopyrazino[2′,1′:2,3]imidazo[4,5-c][1,7]naphthyridine compounds as CK2 inhibitors” (KING FAISAL UNIVERSITY, priority 2023, dated 2024)
